Assay results taken from patent US20240285543A1, “NANOPARTICLE-MEDIATED ENHANCEMENT OF IMMUNOTHERAPY TO PROMOTE FERROPTOSIS-INDUCED CYTOTOXICITY AND ANTITUMOR IMMUNE RESPONSES” (Memorial Sloan-Kettering Cancer Center, priority 2021, published 2024).
Each block holds one molecule with its values, some of them ahead of it.

Tests used:
PSMA [1] = biological target: T1, PSMA (Homo sapiens, UniProt Q04609)
Excerpt: Table printed on a drawing sheet, FIG. 25
(§1) Head of the field: IC50 (M)
The patent's description of the figure: FIG. 25 show PSMA-targeting peptide-linkers, according to embodiments of the present disclosure.
Where the first naming reader finds the target: head: PSMA-Targeting Peptide-Linker Sequences
Target sequence in this assay (Q04609 whole entry, looked up): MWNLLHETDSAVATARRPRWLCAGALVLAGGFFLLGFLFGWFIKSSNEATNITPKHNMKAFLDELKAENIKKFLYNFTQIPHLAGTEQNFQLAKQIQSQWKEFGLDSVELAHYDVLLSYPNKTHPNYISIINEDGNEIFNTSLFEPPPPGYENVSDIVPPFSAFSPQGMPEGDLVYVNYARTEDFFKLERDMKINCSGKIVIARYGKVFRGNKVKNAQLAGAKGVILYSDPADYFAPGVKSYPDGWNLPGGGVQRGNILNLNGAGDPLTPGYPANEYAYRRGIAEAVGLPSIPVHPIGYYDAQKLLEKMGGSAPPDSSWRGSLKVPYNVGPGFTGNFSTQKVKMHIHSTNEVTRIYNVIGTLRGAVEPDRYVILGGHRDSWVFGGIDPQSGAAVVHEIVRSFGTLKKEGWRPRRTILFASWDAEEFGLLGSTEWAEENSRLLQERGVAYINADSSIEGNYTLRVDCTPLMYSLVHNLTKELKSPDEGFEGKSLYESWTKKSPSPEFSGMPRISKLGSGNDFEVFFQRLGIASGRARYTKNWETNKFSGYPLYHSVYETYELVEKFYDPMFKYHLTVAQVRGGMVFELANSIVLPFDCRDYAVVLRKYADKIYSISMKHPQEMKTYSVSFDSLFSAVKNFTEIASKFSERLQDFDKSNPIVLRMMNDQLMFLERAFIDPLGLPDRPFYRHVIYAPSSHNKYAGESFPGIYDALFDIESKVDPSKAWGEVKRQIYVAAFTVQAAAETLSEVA

PSMA [2] = biological target: T1, PSMA; set-up: compiled for 40 patients treated with ^225Ac-PSMA-617; host or cells: patients (mCRPC); conditions: cited from earlier work; for clinical response: mCRPC patients
Target sequence in this assay (Q04609 whole entry): as the sequence (Q04609 whole entry, looked up) above

B16-F10 tumors = experiment: B16-F10 melanoma tumor growth inhibition and TME analysis; assay type: in vivo, mice
Excerpt: FIGS. 15A-15C show C′ dots inhibit melanoma tumor growth via ferroptotic induction and pro-inflammatory responses. […] Data represents analyses of n=4 mice per group, mean±s.e.m. *p<0.05 (non-parametric 2-way ANOVA).
Data represent mean±s.e.m. **** saline-PD1: P=0.0001; **** saline-alpha-MSH: P=0.0001; **** saline-(anti-PD1+alpha-MSH): P<0.0001; **PD1-(anti-PD1+alpha-MSH): P=0.0017; **alpha-MSH-(anti-PD1+alpha-MSH): P=0.0017.
The present example describes a statistically significant and marked drop in tumor volume (red curve) to nearly 65% of control values (blue curve) following a multiple, high-dose (60 μM) regimen of i.v.-injected αMSH-PEG-C′ dots in B16-F10 mice when tumors reached […]. […] To evaluate the extent of immune cell infiltration, IHC was performed to assess for Iba1, CD3, CD4, and CD8 expression, with results graphically depicted in FIG. 15C. […]
Particles have been either injected as multiple doses (n=3) alone or concomitantly with either the first three doses (“early”, on days 7, 10, and 13) or the final three doses (“late”, on days 16, 19, and 22) of anti-PD-1 (250 μg/mouse), anti-CTLA4 (100 μg/mouse), or anti-PD-1+anti-CTLA4 antibody regimens (see FIG. 12). […] It can then be determined whether the order of administration of these agents is important in terms of modulating overall treatment responses.

MC1-R = experiment: IC50 (M)
Excerpt: Table printed on a drawing sheet, FIG. 13F
as §1
The patent's description of the figure: FIGS. 13A-13F show characterization of a lead alpha-MSH peptide-linker conjugate. Structural schematics of representative alpha-MSH peptides. […] FIG. 13B, FIG. 13C each show second generation peptides with reduced hydrophobicity containing PEG2 and one Ahx spacer: (FIG. 13B) PEG2-Ahx-d-Lys-alpha-MSH (yellow closed circle in FIG. 13E); and (FIG. 13C) PEG2-d-Lys-Ahx-alpha-MSH (green triangle in FIG. 13E). […] FIG. 13E and FIG. 13F show IC50 determination of MC1-R targeting Re-cyclized and lactam-cyclized peptides.
First copying reader's note: IC50 values belong to the competitive binding curves of FIG. 13E on the same sheet.
Where the first naming reader finds the target: head: MC1-R-Targeting Peptide Linker Sequences

Molecule: O=C(O)CC[C@H](NC(=O)N[C@@H](CCCCNC(=O)[C@H](Cc1ccc2ccccc2c1)NC(=O)[C@H]1CC[C@H](CNC(=O)CN2CCN(CC(=O)O)CCN(CC(=O)O)CCN(CC(=O)O)CC2)CC1)C(=O)O)C(=O)O [PSMA-617, hooc-Lys(-2Nal-Tran-DOTA)-'CO'-Glu-cooh]
IC50 (PSMA [1]): 21 nM

Molecule: CC(=O)N[C@@H](CS)C(=O)NCCCCCC(=O)NCCCCCC(=O)N[C@H](CCCCN)C(=O)NCCCCCC(=O)NCCCC[C@H](NC(=O)N[C@@H](CCC(=O)O)C(=O)O)C(=O)O [Prototype PSMAi, hooc-Lys(-Ahx-dLys(-nh2)-(Ahx)2-Cys-Ac)-'CO'-Glu-cooh]
IC50 (PSMA [1]): 4.5 nM

Molecule: O=C([O-])CN1CCN(CC(=O)[O-])CCN(CC(=O)NCC2CCC(C(=O)N[C@@H](Cc3ccc4ccccc4c3)C(=O)NCCCC[C@H](NC(=O)N[C@@H](CCC(=O)O)C(=O)O)C(=O)O)CC2)CCN(CC(=O)[O-])CC1.[177Lu+3] (stereo partly shown) [^177Lu-PSMA-617]
clinical response (PSMA [2]): high response rate

Molecule: O=C([O-])CC[C@H](NC(=O)N[C@@H](CCCCNC(=O)[C@H](Cc1ccc2ccccc2c1)NC(=O)[C@H]1CC[C@H](CNC(=O)CN2CCN(CC(=O)[O-])CCN(CC(=O)[O-])CCN(CC(=O)[O-])CC2)CC1)C(=O)[O-])C(=O)[O-].[225Ac].[H+].[H+].[H+] [^225Ac-PSMA-617]
salivary gland toxicity (PSMA [2]; 40 patients): frequent occurrence of severe xerostomia
patients who discontinued treatment due to xerostomia (PSMA [2]; clinical trial): ~23%
clinical response (PSMA [2]): remarkable results

Molecule: Clc1cccc(CN=C2Nc3ccccc3NC23CCNCC3)c1 [liproxstatin-1]
H&E staining of tumor tissue (B16-F10 tumors; after final dose): reversed
effect of i.p. liproxstatin-1 on particle-induced tumor volume drop (B16-F10 tumors; mouse, in vivo, ip): substantially attenuated

IC50 (MC1-R): 7 nM
Molecule: Ac-Cys-(Ahx)2-dLys-Re(CCMSH) [Prototype αMSH]

IC50 (MC1-R): 71 nM
Molecule: Ac-Cys-PEG2-dLys-Ahx-Nle-Re(CCMSH) [2nd gen αMSH (#2)]
